Laboratory results as given in US6743923B2, “Antirheumatic agent” (Shionogi & Co., Ltd., priority 1997, dated 2004).
Marks after values point to notes of the source that are not given here.

What was measured:
[1] = test system: IL-6 production from synovial membrane cells of RA patients; assay: Inhibitory activity against IL-6 production, synovial membrane cells from RA patient; type: cell-based, human; details: synovial membrane cells from RA patient
[2] = test system: adjuvant articular swelling; assay: Rat adjuvant arthritis: inhibitory effect against articular swelling; type: in vivo
Experimental: (§1) A rat adjuvant arthritis model, which is commonly used in an in vivo evaluation for antirheumatic agents, was employed in this evaluation. To prepare an arthritis model, heat-killed cells of Mycobacterium butyricum (Difco) were suspended in mineral oil, and a rat was intradermally injected with 0.05 mL of 1% solution of the suspension at the plantar of left hind leg.
Using the above arthritis model, Compound Ia was administered to the animal for 22 days after injection of the adjuvant, and the articular swelling was measured from time to time to evaluate the prophylactic inhibitory effect. On the other hand, the curative effect was evaluated by administering Compound Ia to animals from Day 15 to Day 25 after injection of the adjuvant and measuring the articular swelling in injected and non-injected legs. Inhibitory and curative effects were expressed by effective dose for 30% inhibition (ED30).

[3] = test system: articular destruction in adjuvant arthritis; assay: Rat adjuvant arthritis: inhibitory effect against articular destruction (X-ray score); type: in vivo
Experimental: as §1
The right and left hind legs of the arthritis rats used in the above experiments were radiographed using a soft X-ray radiation and evaluated by the X-ray observation score for the bone destruction in the arthrosis. The effects were numerically evaluated by grading the articular destruction from 0 to 3 (0: normal; 1: low degree of articular and bone destruction; 2: medium degree of articular and bone destruction, and neogenesis of cartilage; 3: strong articular and bone destruction), and the efficacy in the drug-administered group was determined in comparison with the vehicle-administered group according to Wilcoxon U-test (*p<0.05, **p<0.01)(FIG. 2).

[4] = test system: IL-6 level in articular tissue; assay: Rat adjuvant arthritis: repressive effect on the IL-6 level in articular tissue; type: in vivo; details: oral, 18 days after adjuvant injection, non-injected leg
Experimental: Another adjuvant arthritis model animal was prepared apart from the above experiments, and a compound was orally administered to the animal for 18 days after the adjuvant injection. The non-injected leg was then amputated under anesthetization, epidermis of the amputated leg was ablated, the leg was frozen in liquid nitrogen, and the arthrosis part was crushed by a crushing machine. To a measured quantity of the crushed arthrosis, 3 mL of ice-cold PBS was added and homogenized with a homogenizer under ice-cooling. The resultant homogenate was centrifuged at 4° C. for 20 minutes at 3,000 rpm to collect the supernatant, which was then passed through a 0.45 μm filter to prepare a sample. The sample and MH60 BSF2 cells (derived from mouse, require IL-6) were incubated on a 96-well plate under defined conditions, and the absorbance was measured at two wave lengths of 540 nm and 690 nm. The IL-6 level in the sample was calculated based on the standard curve prepared using a recombinant human IL-6.

[5] = test system: serum amyloid protein (SAP); assay: Effect on MRL/l mouse blood acute phase protein SAP; type: in vivo; details: oral, five times a week, 13 weeks
Experimental: After the last administration of the compound, blood was collected under anesthetization, and the serum was used for SAP measurement. SAP has been used as a marker for rheumatism. A 96-well plate was coated with rabbit anti-mouse SAP serum, and the serum to be tested was then added to the plate and incubated for 2 hours. After addition of sheep anti-mouse SAP serum, a rabbit anti-sheep IgG antibody labeled with alkaline phosphatase and then a substrate were added to the plate, and OD of developed color was measured at 405 nm.

[6] = test system: osteoclast formation in mouse myeloblast; assay: Inhibition of IL-1β-enhanced formation of osteoclast in mouse myeloblast culture; type: cell-based; details: 2.5 ng/mL human IL-1β, six days, TRAP positive multinucleate cells
Experimental: (§2) It has been known that the enhanced formation of osteoclast is induced in the mouse myeloblast culture by addition of IL-1β and such effect is derived from PGE2 production through COX-2 induction. In order to determine inhibitory effect of the compounds against such effect, myeloblasts were collected from a ddY male mice, plated in a 48-well plate at 1×10^6/well and incubated. After culturing for six days in an α-MEM medium containing 10% fetal bovine serum, to which 2.5 ng/mL of human IL-1β and a predetermined concentration of the compounds were added, PGE2 level in the supernatant was measured by RIA kit. On the other hand, cells adhering on the plate were immobilized, and an activity staining of tartaric acid resistant acid phosphatase (TRAP), which is a marker enzyme for osteoclast, was conducted, whereby the number of TRAP positive cells having multinucleate (N>3) per well was counted as osteoclast.

PGE2 production = assay: Inhibition of PGE2 production due to IL-1β stimulation in mouse myeloblast culture; type: cell-based; details: 2.5 ng/mL human IL-1β, six days, RIA
Experimental: as §2

[7] = test system: NO production from activated macrophage; assay: Inhibitory activity against NO production from mouse activated macrophage; type: cell-based; details: LPS
Experimental: To BALB/c male mice was intraperitoneally administered 2 mL of a thioglycolate solution, and induced activated MΦ were collected after four days and used as NO producing cells. The cells were adjusted to 2×10^6 cells/mL and plated onto a 96-well microtiter plate at 2×10^5 cells/100 μL/well. 10 μL of 1 μg/mL of Compound Ia and LPS (lipopolysaccharide) were added thereto and incubated at 37° C. under 5% CO2 for 24 hours. 75 μL of the supernatant obtained after incubation and 75 μL of Griess reagent were incubated, and […] in the form of sodium nitrite was measured to determine the amount of NO in the supernatant.

blood NOx level = assay: Suppressive effect on blood NOx level in adjuvant arthritis rat; type: in vivo; details: oral, 28 days
Experimental: An adjuvant arthritis model was prepared in the same manner as above, and the compounds were orally administered to the animals for 28 days beginning on the day before the adjuvant injection. Blood was then collected under anesthetization and the serum was ultracentrifuged. The supernatant was ultrafiltrated to prepare a sample for NOx (nitrite+nitrate) measurement.

[8] = test system: transcription factor NFκB; assay: Suppressive activity on transcription factor NFκB (HIV-1 LTR luciferase reporter in Jurkat cell); type: cell-based, human; details: for luciferase activity (%) mean ± standard error: TPA-PHA = 100
Experimental: A recombinant plasmid (pGV-B.HIV-1LTR), in which HIV-1 (AIDS) virus promoter LTR containing two NFκB binding sites is ligated to upstream of firefly luciferase gene, was constructed, and the DNA was purified. This plasmid DNA was introduced by electroporation into a Jurkat cell, a human T cell leukemic cell line, and the cell was cultured for 48 hours. Subsequently, phytohemagglutinin (PHA, 0.5%), phorbol ester (TPA (12-O-tetradecanoylphorbol 13-acetate), 25 ng/mL), and a predetermined concentration of the test compound were added thereto to allow to react for 2 hours, and the cells were harvested, and the luciferase activity in the cellular extract was measured.

## CCN1CC/C(=C\c2cc(C(C)(C)C)c(O)c(C(C)(C)C)c2)S1(=O)=O [Compound Ia, (E)-2-Ethyl-5-(3,5-di-tert-butyl-4-hydroxy)benzylidene-1,2-isothiazolidine-1,1-dioxide]
[1]
  IC50: 10000 nM
[2]; curative
  dose with dose-dependent and significant inhibitory effect against articular swelling, curative effect: ≥ 3 mg/kg/day
[2]; prophylactic, adjuvant-injected leg
  dose with dose-dependent and significant inhibitory effect against articular swelling: ≥ 0.3 mg/kg/day
[2]; rat, administered for 22 days after injection of the adjuvant
  ED30 (95% confidence limits), prophylactic effect against adjuvant articular swelling: 0.88 (0.52-1.31) mg/kg/day
[2]; rat, administered from Day 15 to Day 25 after injection of the adjuvant
  ED30 (95% confidence limits), curative effect against adjuvant articular swelling: 2.6 (1.3-6.4) mg/kg/day
[3]; adjuvant-injected leg
  dose with dose-dependent and significant inhibitory effect against the articular destruction: ≥ 3 mg/kg/day
[3]; non-injected leg
  dose with dose-dependent and significant inhibitory effect against the articular destruction: ≥ 1 mg/kg/day
[4]
  dose with dose-dependent and significant inhibitory effect against the increase of the IL-6 level in the articular tissue: ≥ 3 mg/kg/day
[5]; 50 mg/kg/day
  effect on blood SAP: significant results
[5]; 2-50 mg/kg/day
  effect on blood SAP: repressive tendency in a dose-dependent manner
[6]
  IC50: 1.3 nM
PGE2 production
  IC50: 0.21 nM
[7]; 0.8 μM compound, 24 hours
  NO^2- Production: 27.3 ± 0.94 μM/2 × 10^5 cells
[7]; 3.1 μM compound, 24 hours
  NO^2- Production: 12.3 ± 2.50 μM/2 × 10^5 cells
[7]; 12.5 μM compound, 24 hours
  NO^2- Production: <1.0*** μM/2 × 10^5 cells
[7]; 50 μM compound, 24 hours
  NO^2- Production: <1.0*** μM/2 × 10^5 cells
[7]; 100 μM compound, 24 hours
  NO^2- Production: <1.0*** μM/2 × 10^5 cells
[7]; mouse activated macrophage
  concentration at which NO production was inhibited in a dose-dependent manner: 0.8 to 12.5 µM
[7]; mouse activated macrophage, 24 hours
  IC50: 3000 nM
Blood NOx level
  dose with dose-dependent and significant inhibitory effect on the increase of blood NOx level: ≥ 3 mg/kg/day
[8]; Experiment-1, 5 μM
  luciferase activity (%) mean ± standard error: 82.2 ± 8.3%
[8]; Experiment-1, 10 μM
  luciferase activity (%) mean ± standard error: 79.6 ± 5.4%
[8]; Experiment-1, 20 μM
  luciferase activity (%) mean ± standard error: 54.6 ± 4.3%
[8]; Experiment-1, 50 μM
  luciferase activity (%) mean ± standard error: 53.5 ± 5.9%
[8]; Experiment-2, 20 μM
  luciferase activity (%) mean ± standard error: 86.4 ± 1.9%
[8]; Experiment-2, 50 μM
  luciferase activity (%) mean ± standard error: 75.1%
[8]; Experiment-2, 100 μM
  luciferase activity (%) mean ± standard error: 61.1 ± 3.9%
[8]; Jurkat cell, TPA-PHA
  concentration at which luciferase activity was inhibited: 5 to 50 µM
